Laboratory results reported in the supplement of paper PMC8671470.

test system: HL-60; test: cell viability (% survival relative to DMSO control); higher = less cytotoxic; conditions: drug1 concentration 5000 nM; drug2 concentration 100 nM; 72 h
Procedure: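 8x8 drug-combination matrices (0-5000 nM; rosiglitazone and lestaurtinib 0-1000 nM) were run in HL-60 cells for 72 h with a CellTiter-Glo read-out. Survival is normalised to DMSO and 10 µM bortezomib and clipped at 100%. Bliss synergy was analysed in SynergyFinder.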

Row | SMILES | cell viability [%]
1 | CC(C)c1onc(-c2c(Cl)cccc2Cl)c1COc1ccc(/C=C/c2cccc(C(=O)O)c2)c(Cl)c1 [GW4064] + Cn1cc(-c2ccncc2)c(-c2ccc(OCc3ccc4ccccc4n3)cc2)n1 [PF-02545920] | 53.4

same assay, conditions: drug1 concentration 5000 nM; drug2 concentration 500 nM; 72 h

Row | SMILES | cell viability [%]
2 | O=C(C1CC1)N1CC[C@@H](C=C2NNC(=O)N2c2ccc(-c3ccc4occc4c3)cc2)C1 + CS(=O)(=O)N1CCN(Cc2cc3nc(-c4cccc5[nH]ncc45)nc(N4CCOCC4)c3s2)CC1 [Pictilisib] | 45
3 | O=C(C1CC1)N1CC[C@@H](C=C2NNC(=O)N2c2ccc(-c3ccc4occc4c3)cc2)C1 + C[C@H](NC(=O)c1sccc1OCc1ccc(Cl)cc1)c1ccccc1 [as1949490] | 38.5
4 | O=C(C1CC1)N1CC[C@@H](C=C2NNC(=O)N2c2ccc(-c3ccc4occc4c3)cc2)C1 + O=C(c1c2ccccc2cc2ccccc12)N1CCC(N2CCC[C@@H](C(=O)N3CCOCC3)C2)CC1 [CP-640186] | 71.1
5 | CC(C)c1onc(-c2c(Cl)cccc2Cl)c1COc1ccc(/C=C/c2cccc(C(=O)O)c2)c(Cl)c1 [GW4064] + Cn1cc(-c2ccncc2)c(-c2ccc(OCc3ccc4ccccc4n3)cc2)n1 [PF-02545920] | > 100

same assay, conditions: drug1 concentration 5000 nM; drug2 concentration 1000 nM; 72 h

Row | SMILES | cell viability [%]
6 | O=C(C1CC1)N1CC[C@@H](C=C2NNC(=O)N2c2ccc(-c3ccc4occc4c3)cc2)C1 + CS(=O)(=O)N1CCN(Cc2cc3nc(-c4cccc5[nH]ncc45)nc(N4CCOCC4)c3s2)CC1 [Pictilisib] | 39.1
7 | O=C(C1CC1)N1CC[C@@H](C=C2NNC(=O)N2c2ccc(-c3ccc4occc4c3)cc2)C1 + C[C@H](NC(=O)c1sccc1OCc1ccc(Cl)cc1)c1ccccc1 [as1949490] | 35.8
8 | O=C(C1CC1)N1CC[C@@H](C=C2NNC(=O)N2c2ccc(-c3ccc4occc4c3)cc2)C1 + O=C(c1c2ccccc2cc2ccccc12)N1CCC(N2CCC[C@@H](C(=O)N3CCOCC3)C2)CC1 [CP-640186] | 79.2
9 | CC(C)c1onc(-c2c(Cl)cccc2Cl)c1COc1ccc(/C=C/c2cccc(C(=O)O)c2)c(Cl)c1 [GW4064] + Cn1cc(-c2ccncc2)c(-c2ccc(OCc3ccc4ccccc4n3)cc2)n1 [PF-02545920] | > 100

same assay, conditions: drug1 concentration 5000 nM; drug2 concentration 5000 nM; 72 h

Row | SMILES | cell viability [%]
10 | O=C(C1CC1)N1CC[C@@H](C=C2NNC(=O)N2c2ccc(-c3ccc4occc4c3)cc2)C1 + CS(=O)(=O)N1CCN(Cc2cc3nc(-c4cccc5[nH]ncc45)nc(N4CCOCC4)c3s2)CC1 [Pictilisib] | 36.2
11 | O=C(C1CC1)N1CC[C@@H](C=C2NNC(=O)N2c2ccc(-c3ccc4occc4c3)cc2)C1 + C[C@H](NC(=O)c1sccc1OCc1ccc(Cl)cc1)c1ccccc1 [as1949490] | 33.3
12 | O=C(C1CC1)N1CC[C@@H](C=C2NNC(=O)N2c2ccc(-c3ccc4occc4c3)cc2)C1 + O=C(c1c2ccccc2cc2ccccc12)N1CCC(N2CCC[C@@H](C(=O)N3CCOCC3)C2)CC1 [CP-640186] | 66.5
13 | CC(C)c1onc(-c2c(Cl)cccc2Cl)c1COc1ccc(/C=C/c2cccc(C(=O)O)c2)c(Cl)c1 [GW4064] + Cn1cc(-c2ccncc2)c(-c2ccc(OCc3ccc4ccccc4n3)cc2)n1 [PF-02545920] | > 100

test system: BV-173; test: as above; conditions: drug1 concentration 5 nM; drug2 concentration 5 nM; 72 h
Procedure: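 8x8 drug-combination matrices (0–5000 nM; rosiglitazone and lestaurtinib 0–1000 nM) were run in BV-173 cells for 72 h with CellTiter-Glo read-out. Survival is normalised to DMSO and 10 µM bortezomib and clipped at 100%.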

Row | SMILES | cell viability [%]
14 | O=C(C1CC1)N1CC[C@@H](C=C2NNC(=O)N2c2ccc(-c3ccc4occc4c3)cc2)C1 + CS(=O)(=O)N1CCN(Cc2cc3nc(-c4cccc5[nH]ncc45)nc(N4CCOCC4)c3s2)CC1 [Pictilisib] | > 100
15 | O=C(C1CC1)N1CC[C@@H](C=C2NNC(=O)N2c2ccc(-c3ccc4occc4c3)cc2)C1 + C[C@H](NC(=O)c1sccc1OCc1ccc(Cl)cc1)c1ccccc1 [as1949490] | > 100
16 | O=C(C1CC1)N1CC[C@@H](C=C2NNC(=O)N2c2ccc(-c3ccc4occc4c3)cc2)C1 + O=C(c1c2ccccc2cc2ccccc12)N1CCC(N2CCC[C@@H](C(=O)N3CCOCC3)C2)CC1 [CP-640186] | 96.3
17 | CC(C)c1onc(-c2c(Cl)cccc2Cl)c1COc1ccc(/C=C/c2cccc(C(=O)O)c2)c(Cl)c1 [GW4064] + Cn1cc(-c2ccncc2)c(-c2ccc(OCc3ccc4ccccc4n3)cc2)n1 [PF-02545920] | > 100

same assay, conditions: drug1 concentration 5 nM; drug2 concentration 10 nM; 72 h

Row | SMILES | cell viability [%]
18 | O=C(C1CC1)N1CC[C@@H](C=C2NNC(=O)N2c2ccc(-c3ccc4occc4c3)cc2)C1 + CS(=O)(=O)N1CCN(Cc2cc3nc(-c4cccc5[nH]ncc45)nc(N4CCOCC4)c3s2)CC1 [Pictilisib] | > 100
19 | O=C(C1CC1)N1CC[C@@H](C=C2NNC(=O)N2c2ccc(-c3ccc4occc4c3)cc2)C1 + C[C@H](NC(=O)c1sccc1OCc1ccc(Cl)cc1)c1ccccc1 [as1949490] | 94.1
20 | O=C(C1CC1)N1CC[C@@H](C=C2NNC(=O)N2c2ccc(-c3ccc4occc4c3)cc2)C1 + O=C(c1c2ccccc2cc2ccccc12)N1CCC(N2CCC[C@@H](C(=O)N3CCOCC3)C2)CC1 [CP-640186] | > 100
21 | CC(C)c1onc(-c2c(Cl)cccc2Cl)c1COc1ccc(/C=C/c2cccc(C(=O)O)c2)c(Cl)c1 [GW4064] + Cn1cc(-c2ccncc2)c(-c2ccc(OCc3ccc4ccccc4n3)cc2)n1 [PF-02545920] | > 100

same assay, conditions: drug1 concentration 5 nM; drug2 concentration 50 nM; 72 h

Row | SMILES | cell viability [%]
22 | O=C(C1CC1)N1CC[C@@H](C=C2NNC(=O)N2c2ccc(-c3ccc4occc4c3)cc2)C1 + CS(=O)(=O)N1CCN(Cc2cc3nc(-c4cccc5[nH]ncc45)nc(N4CCOCC4)c3s2)CC1 [Pictilisib] | > 100
23 | O=C(C1CC1)N1CC[C@@H](C=C2NNC(=O)N2c2ccc(-c3ccc4occc4c3)cc2)C1 + C[C@H](NC(=O)c1sccc1OCc1ccc(Cl)cc1)c1ccccc1 [as1949490] | > 100
24 | O=C(C1CC1)N1CC[C@@H](C=C2NNC(=O)N2c2ccc(-c3ccc4occc4c3)cc2)C1 + O=C(c1c2ccccc2cc2ccccc12)N1CCC(N2CCC[C@@H](C(=O)N3CCOCC3)C2)CC1 [CP-640186] | > 100
25 | CC(C)c1onc(-c2c(Cl)cccc2Cl)c1COc1ccc(/C=C/c2cccc(C(=O)O)c2)c(Cl)c1 [GW4064] + Cn1cc(-c2ccncc2)c(-c2ccc(OCc3ccc4ccccc4n3)cc2)n1 [PF-02545920] | > 100

same assay, conditions: drug1 concentration 5 nM; drug2 concentration 100 nM; 72 h

Row | SMILES | cell viability [%]
26 | O=C(C1CC1)N1CC[C@@H](C=C2NNC(=O)N2c2ccc(-c3ccc4occc4c3)cc2)C1 + CS(=O)(=O)N1CCN(Cc2cc3nc(-c4cccc5[nH]ncc45)nc(N4CCOCC4)c3s2)CC1 [Pictilisib] | 81
27 | O=C(C1CC1)N1CC[C@@H](C=C2NNC(=O)N2c2ccc(-c3ccc4occc4c3)cc2)C1 + C[C@H](NC(=O)c1sccc1OCc1ccc(Cl)cc1)c1ccccc1 [as1949490] | > 100
28 | O=C(C1CC1)N1CC[C@@H](C=C2NNC(=O)N2c2ccc(-c3ccc4occc4c3)cc2)C1 + O=C(c1c2ccccc2cc2ccccc12)N1CCC(N2CCC[C@@H](C(=O)N3CCOCC3)C2)CC1 [CP-640186] | > 100
29 | CC(C)c1onc(-c2c(Cl)cccc2Cl)c1COc1ccc(/C=C/c2cccc(C(=O)O)c2)c(Cl)c1 [GW4064] + Cn1cc(-c2ccncc2)c(-c2ccc(OCc3ccc4ccccc4n3)cc2)n1 [PF-02545920] | > 100

same assay, conditions: drug1 concentration 5 nM; drug2 concentration 500 nM; 72 h

Row | SMILES | cell viability [%]
30 | O=C(C1CC1)N1CC[C@@H](C=C2NNC(=O)N2c2ccc(-c3ccc4occc4c3)cc2)C1 + CS(=O)(=O)N1CCN(Cc2cc3nc(-c4cccc5[nH]ncc45)nc(N4CCOCC4)c3s2)CC1 [Pictilisib] | > 100
31 | O=C(C1CC1)N1CC[C@@H](C=C2NNC(=O)N2c2ccc(-c3ccc4occc4c3)cc2)C1 + C[C@H](NC(=O)c1sccc1OCc1ccc(Cl)cc1)c1ccccc1 [as1949490] | 85.5
32 | O=C(C1CC1)N1CC[C@@H](C=C2NNC(=O)N2c2ccc(-c3ccc4occc4c3)cc2)C1 + O=C(c1c2ccccc2cc2ccccc12)N1CCC(N2CCC[C@@H](C(=O)N3CCOCC3)C2)CC1 [CP-640186] | > 100
33 | CC(C)c1onc(-c2c(Cl)cccc2Cl)c1COc1ccc(/C=C/c2cccc(C(=O)O)c2)c(Cl)c1 [GW4064] + Cn1cc(-c2ccncc2)c(-c2ccc(OCc3ccc4ccccc4n3)cc2)n1 [PF-02545920] | 97.3

same assay, conditions: drug1 concentration 5 nM; drug2 concentration 1000 nM; 72 h

Row | SMILES | cell viability [%]
34 | O=C(C1CC1)N1CC[C@@H](C=C2NNC(=O)N2c2ccc(-c3ccc4occc4c3)cc2)C1 + CS(=O)(=O)N1CCN(Cc2cc3nc(-c4cccc5[nH]ncc45)nc(N4CCOCC4)c3s2)CC1 [Pictilisib] | 89.7
35 | O=C(C1CC1)N1CC[C@@H](C=C2NNC(=O)N2c2ccc(-c3ccc4occc4c3)cc2)C1 + C[C@H](NC(=O)c1sccc1OCc1ccc(Cl)cc1)c1ccccc1 [as1949490] | > 100
36 | O=C(C1CC1)N1CC[C@@H](C=C2NNC(=O)N2c2ccc(-c3ccc4occc4c3)cc2)C1 + O=C(c1c2ccccc2cc2ccccc12)N1CCC(N2CCC[C@@H](C(=O)N3CCOCC3)C2)CC1 [CP-640186] | 86.4
37 | CC(C)c1onc(-c2c(Cl)cccc2Cl)c1COc1ccc(/C=C/c2cccc(C(=O)O)c2)c(Cl)c1 [GW4064] + Cn1cc(-c2ccncc2)c(-c2ccc(OCc3ccc4ccccc4n3)cc2)n1 [PF-02545920] | > 100
